Data reported in patent US20250177357A1, “METHODS FOR TREATING HYPERTROPHIC CARDIOMYOPATHY” (priority 2021, published 2025).

Columns and labels:
[1] = Phase 1 plasma pharmacokinetics, single-ascending dose cohorts; format: in vivo, human
Protocol: Single-ascending dose (SAD) cohorts. The SAD portion of the study used a randomized, double-blind, placebo-controlled, sequential, escalating-dose design, in which participants received single-ascending oral doses of the study drug. Seven cohorts were dosed in sequence (FIG. 2).
Pharmacokinetic analyses. For all study groups, blood samples for PK assessment were obtained pre-dose, up to 12 times daily on day 1, and then at regular intervals throughout the study. Blood samples were collected according to the following schedule: SAD Cohorts: Day 1: pre-dose and 0.25, 0.5, 1, 1.5, 2, 2.5, 3, 4, 6, 8, 12, 16, 24, 36, 48, 72, 96, and 216 h post dose. MAD Cohorts (14-day Dosing): Day 1: pre-dose and 0.25, 0.5, 1, 1.5, 2, 2.5, 3, 4, 6, 8, and 12 h post dose; Days 2, 4, 5, 6, and 9: pre-dose (corresponding to trough samples following dosing on days 1, 3, 4, 5, and 8) and 1.5 h post dose; Days 3, 7, 8, 10, 11, 12, and 13: pre-dose (corresponding to trough samples following dosing on days 2, 6, 7, 9, 10, 11, and 12); Day 14: pre-dose and 0.25, 0.5, 1.5, 2, 2.5, 3, 4, 6, 8, 12, 16, 24, 36, 48, 72, and 168 h post dose. MAD Cohort (17-Day Dosing): Day 1: pre-dose and 0.25, 0.5, 1, 1.5, 2, 2.5, 3, 4, 6, 8, and 12 h post dose; Days 2, 4, 5, 6, and 9: pre-dose (corresponding to trough samples following dosing on days 1, 3, 4, 5, and 8) and 1.5 h post dose; Days 3, 7, 8, 10, 11, 12, 13, 14, 15, and 16: pre-dose (corresponding to trough samples following dosing on days 2, 6, 7, 9, 10, 11, and 12); Day 17: pre-dose and 0.25, 0.5, 1.5, 2, 2.5, 3, 5, 7, 9, 12, 24, 36, 48, 72, and 168 h post dose. CYPD6-PM Cohort: Day 1: pre-dose and 0.25, 0.5, 1, 1.5, 2, 2.5, 3, 4, 6, 8, 12, 16, 24, 36, 48, 72, 96, 216, 312, and 552 h post dose. Food-Effect Cohort: Day 1: pre-dose and 0.25, 0.5, 1, 1.5, 2, 2.5, 3, 4, 6, 8, 12, 16, 24, 36, 48, 72, 96, 144, and 216 h post dose. Standard non-compartmental methods were used to calculate PK parameters using Phoenix® WinNonlin® Version 7.0; actual sample collection times were utilized.
For the MAD cohort, the parameters were AUC24 and Cmax on day 1, plus AUC to the […] (AUCtau) and Cmax on day 14 or 17. The statistical linear relationship between the ln-transformed PK parameters and the ln-transformed dose was verified by including the quadratic (ln Dose)^2 and cubic (ln Dose)^3 effects. […] The dose-proportionality analysis was performed using SAS® PROC MIXED.

[2] = Phase 1 plasma pharmacokinetics, food-effect cohort; format: in vivo, human; conditions: single 10 mg
Protocol: Food-effect cohort. […] Participants were randomized in a 1:1 ratio to 1 of 2 sequences: fasted/fed or fed/fasted.
Pharmacokinetic analyses. For all study groups, blood samples for PK assessment were obtained pre-dose, up to 12 times daily on day 1, and then at regular intervals throughout the study. Blood samples were collected according to the following schedule: SAD Cohorts: Day 1: pre-dose and 0.25, 0.5, 1, 1.5, 2, 2.5, 3, 4, 6, 8, 12, 16, 24, 36, 48, 72, 96, and 216 h post dose. […] CYPD6-PM Cohort: Day 1: pre-dose and 0.25, 0.5, 1, 1.5, 2, 2.5, 3, 4, 6, 8, 12, 16, 24, 36, 48, 72, 96, 216, 312, and 552 h post dose. Food-Effect Cohort: Day 1: pre-dose and 0.25, 0.5, 1, 1.5, 2, 2.5, 3, 4, 6, 8, 12, 16, 24, 36, 48, 72, 96, 144, and 216 h post dose. Standard non-compartmental methods were used to calculate PK parameters using Phoenix® WinNonlin® Version 7.0; actual sample collection times were utilized.

Structure (SMILES): CCc1nc(-c2ccc3c(c2)CC[C@H]3NC(=O)c2cnn(C)c2)no1 [aficamten, (R)—N-(5-(5-ethyl-1,2,4-oxadiazol-3-yl)-2,3-dihydro-1H-inden-1-yl)-1-methyl-1H-pyrazole-4-carboxamide]
- Maximum time to maximum observed concentration across all participants ([1]; SAD cohorts): 4.0 h
- CL/F, mean ± SD ([1]; single oral dose 3 mg, n = 5): 4.2 ± 3.1 L/h
- CL/F, mean ± SD ([1]; single oral dose 10 mg, n = 4): 3.0 ± 0.7 L/h
- CL/F, mean ± SD ([1]; single oral dose 25 mg, n = 6): 3.6 ± 0.5 L/h
- CL/F, mean ± SD ([1]; single oral dose 40 mg, n = 5): 3.4 ± 0.6 L/h
- CL/F, mean ± SD ([1]; single oral dose 50 mg, n = 9): 3.8 ± 1.1 L/h
- CL/F, mean ± SD ([2]; Fasted, n = 4): 2.8 ± 0.6 L/h
- CL/F, mean ± SD ([2]; Fed, n = 7): 3.1 ± 0.9 L/h
- Increase in Cmax when taken with food ([2]; fed vs fasted): approximately 30%
